Laboratory results: patent US20250073358A1, “AROMATIC VINYL COMPOUND, METAL COMPLEX THEREOF, AND PREPARATION METHOD THEREFOR AND USE THEREOF” (SHANGHAI MAXINOVEL PHARMACEUTICALS CO., LTD., priority 2021, published 2025)
Each block holds one compound with its values, some of them ahead of it.

Columns and labels:
[1] = tested on: tumor; assay: Inhibitory effect on tumor in tumor-bearing mice; format: in vivo, C57/BL6 mice; settings: tail vein injection, 45 MBq per mouse, compared with the control group (PBS)
From the text: • 1. Inhibitory effect of compound 78 on tumor • 1.1 Experimental animal information: tumor-bearing C57/BL6 mice; SPF grade; weight range: 17-20 g; Shanghai Qi'up Biomedical Technology Co., Ltd. • 1.2 Experimental process
Ten tumor-bearing mice with tumor volumes of 10-100 mm^3 were systematically and randomly divided into 2 groups according to tumor size, with 5 mice in each group, corresponding to PBS and compound 78 respectively. After anesthesia with isoflurane, tumor-bearing mice were injected into the tail vein with compound 78 with 45 MBq (approximately 1.2 mCi) per mouse and a volume of 0.2 mL. After administration, the tumor size and weight of the animals were measured periodically, and the tumor growth curve was drawn to understand the inhibitory effect of the drug on tumor.

[2] = target: PD-1/PD-L1 (Homo sapiens (Human), UniProt Q9NZQ7); assay: Homogenouse Time-Resolved Fluorescence (HTRF) binding assay, PD-1/PD-L1
Chain of PD-1/PD-L1 (Q9NZQ7 19-238): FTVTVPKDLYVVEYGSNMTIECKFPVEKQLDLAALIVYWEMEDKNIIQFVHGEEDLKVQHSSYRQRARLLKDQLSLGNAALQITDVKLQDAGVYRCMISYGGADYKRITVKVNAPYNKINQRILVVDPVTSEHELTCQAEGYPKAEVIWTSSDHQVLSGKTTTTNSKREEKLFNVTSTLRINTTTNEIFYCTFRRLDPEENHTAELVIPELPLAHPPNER
Description: Homogenouse Time-Resolved Fluorescence (HTRF) binding assay was used to detect the binding ability of the compound of the present disclosure to PD-1/PD-L1.
The purchased kit (CisBio, #64CUS000C-1) contains reagents required for experiments such as PD-1, PD-L1, anti-tag1-Eu, Anti-tag2-XL665, Dilute Buffer, and Detection Buffer.
• 1. The compound was configured with 100% DMSO into 10 concentrations with a concentration gradient of 3 times. • 2. The DMSO solution of the compound was added to Dilute Buffer solution, and the mixture was mixed well and transferred to a 96-well plate. • 3. PD-L1 was diluted with Dilute Buffer solution and then added to the above 96-well plate. • 4. PD-1 was diluted with Dilute Buffer solution and then added to the above 96-well plate, and incubated at room temperature for 30 minutes. • 5. One part of anti-tag1-Eu and one part of Anti-tag2-XL665 were added to Detection Buffer solution, and the mixture was mixed well and transferred to the above 96-well plate. • 6. The mixture in the 96-well plate was incubated at room temperature for 1 to 24 hours. • 7. The HTRF values were read with Envision.

SMILES: Cc1c(/C=C/c2cc(OCCOCCN3CCN(CC(=O)[O-])CCN(CC(=O)[O-])CCN(CC(=O)[O-])CC3)c(CN3CCCC[C@H]3C(=O)O)cc2C(F)(F)F)cccc1-c1ccccc1.[177Lu+3] [Compound 77]
inhibition of tumor growth [1]: very good therapeutic effects on inhibiting tumor growth

SMILES: Cc1c(/C=C/c2cc(OCCCCCCNC(=O)CN3CCN(CC(=O)O)CCN(CC(=O)O)CCN(CC(=O)O)CC3)c(CN3CCCC[C@H]3C(=O)O)cc2C(F)(F)F)cccc1-c1ccccc1 [Compound 23]
IC50 [2]: 0.833 nM

SMILES: Cc1c(/C=C/c2cc(OCCOCCN3CCN(CC(=O)O)CCN(CC(=O)O)CCN(CC(=O)O)CC3)c(CN3CCCC[C@H]3C(=O)O)cc2C(F)(F)F)cccc1-c1ccccc1 [Compound 6]
IC50 [2]: 2.66 nM
inhibition of tumor growth [1]: very good therapeutic effects on inhibiting tumor growth

SMILES: N#Cc1c(-c2ccccc2)ccnc1/C=C/c1cc(OCC2CCN(C(=O)CN3CCN(CC(=O)[O-])CCN(CC(=O)[O-])CCN(CC(=O)[O-])CC3)CC2)c(CN2CCCC[C@H]2C(=O)O)cc1C(F)(F)F.[Lu+3] [Compound 44]
inhibition of tumor growth [1]: very good therapeutic effects on inhibiting tumor growth

SMILES: Cc1c(/C=C/c2cc(OCCCCCCNC(=O)CN3CCN(CC(=O)[O-])CCN(CC(=O)[O-])CCN(CC(=O)[O-])CC3)c(CN3CCCC[C@H]3C(=O)O)cc2C(F)(F)F)cccc1-c1ccccc1.[Lu+3] [Compound 24]
IC50 [2]: 0.785 nM
inhibition of tumor growth [1]: very good therapeutic effects on inhibiting tumor growth

SMILES: Cc1ccc(CCCC(=O)NCCCC[C@H](NC(=O)CN2CCN(CC(=O)O)CCN(CC(=O)O)CCN(CC(=O)O)CC2)C(=O)NCC2CCC(C(=O)NCCOc3cc(/C=C/c4cccc(-c5ccccc5)c4C)c(C(F)(F)F)cc3CN3CCCC[C@H]3C(=O)O)CC2)cc1 (stereo partly shown) [Compound 21]
IC50 [2]: 3.74 nM

SMILES: Cc1c(/C=C/c2cc(OCCCCNC(=O)CN3CCN(CC(=O)O)CCN(CC(=O)O)CCN(CC(=O)O)CC3)c(CN3CCCC[C@H]3C(=O)O)cc2C(F)(F)F)cccc1-c1ccccc1 [Compound 4, (2S)-1-({4-[(1E)-2-(2-Methyl-3-phenylphenyl)vinyl]-5-(trifluoromethyl)-2-{[4-({2-[4,7,10-tris(carboxymethyl)-1,4,7,10-tetraazacyclododecan-1-yl]acetyl}amino)butyl]oxy}phenyl}methyl)hexahydropyridine-2-carboxylic acid]
IC50 [2]: 0.888 nM

SMILES: Cc1ccc(CCCC(=O)NCCCC[C@H](NC(=O)CN2CCN(CC(=O)O)CCN(CC(=O)O)CCN(CC(=O)O)CC2)C(=O)NCCCCCCOc2cc(/C=C/c3cccc(-c4ccccc4)c3C)c(C(F)(F)F)cc2CN2CCCC[C@H]2C(=O)O)cc1 [Compound 25]
IC50 [2]: 16.2 nM

SMILES: Cc1c(/C=C/c2cc(OCCNC(=O)C3CCC(CNC(=O)CN4CCN(CC(=O)O)CCN(CC(=O)O)CCN(CC(=O)O)CC4)CC3)c(CN3CCCC[C@H]3C(=O)O)cc2C(F)(F)F)cccc1-c1ccccc1 (stereo partly shown) [Compound 9]
IC50 [2]: 1.07 nM

SMILES: Cc1c(/C=C/c2cc(OCC3CCN(C(=O)CN4CCN(CC(=O)O)CCN(CC(=O)O)CCN(CC(=O)O)CC4)CC3)c(CN3CCCC[C@H]3C(=O)O)cc2C(F)(F)F)cccc1-c1ccccc1 [Compound 20]
IC50 [2]: 1.01 nM
inhibition of tumor growth [1]: very good therapeutic effects on inhibiting tumor growth

SMILES: Cc1c(/C=C/c2cc(OCCNC(=O)CN3CCN(CC(=O)O)CCN(CC(=O)O)CCN(CC(=O)O)CC3)c(CN3CCCC[C@H]3C(=O)O)cc2C(F)(F)F)cccc1-c1ccccc1 [Compound 3, (2S)-1-({4-[(1E)-2-(2-Methyl-3-phenylphenyl)vinyl]-5-(trifluoromethyl)-2-{[2-({2-[4,7,10-tris(carboxymethyl)-1,4,7,10-tetraazacyclododecan-1-yl]acetyl}amino)ethyl]oxy}phenyl}methyl)hexahydropyridine-2-carboxylic acid]
IC50 [2]: 3.16 nM

SMILES: Cc1ccc(CCCC(=O)NCCCC[C@H](NC(=O)CN2CCN(CC(=O)O)CCN(CC(=O)O)CCN(CC(=O)O)CC2)C(=O)NCC2CCC(C(=O)NCCOc3cc(/C=C/c4cccc(-c5ccccc5)c4C)c(C(F)(F)F)cc3CN3CCCC[C@H]3C(=O)O)CC2)cc1 (stereo partly shown) [Compound 22]
IC50 [2]: 5.03 nM
inhibition of tumor growth [1]: very good therapeutic effects on inhibiting tumor growth

SMILES: Cc1cc(CN2CCCC[C@H]2C(=O)O)c(OCCOC(=O)CN2CCN(CC(=O)[O-])CCN(CC(=O)[O-])CCN(CC(=O)[O-])CC2)cc1/C=C/c1cccc(-c2ccccc2)c1C#N.[177Lu+3] [Compound 76]
inhibition of tumor growth [1]: very good therapeutic effects on inhibiting tumor growth

SMILES: Cc1c(/C=C/c2cc(OCC3CCN(C(=O)CN4CCN(CC(=O)O)CCN(CC(=O)O)CCN(CC(=O)O)CC4)CC3)c(CN3CCCC[C@H]3C(=O)O)cc2C(F)(F)F)cccc1-c1ccccc1 [Compound 19]
IC50 [2]: 0.869 nM

SMILES: Cc1c(/C=C/c2cc(OCCOCCN3CCN(CC(=O)O)CCN(CC(=O)O)CCN(CC(=O)O)CC3)c(CN3CCCC[C@H]3C(=O)O)cc2C(F)(F)F)cccc1-c1ccccc1 [Compound 2]
IC50 [2]: 1.29 nM

Second part, led by results:

IC50 [2]: 4.83 nM
SMILES: N#Cc1c(-c2ccccc2)ccnc1/C=C/c1cc(OCCCCCN2CCN(CC(=O)O)CCN(CC(=O)O)CC2)c(CN2CCCC[C@H]2C(=O)O)cc1C(F)(F)F [Compound 57]

IC50 [2]: 300 nM
SMILES: Cc1ccc(CCCC(=O)NCCCC[C@H](NC(=O)CN2CCN(CC(=O)O)CCN(CC(=O)O)CCN(CC(=O)O)CC2)C(=O)NCCOc2cc(/C=C/c3cccc(-c4ccccc4)c3C)c(C(F)(F)F)cc2CN2CCCC[C@H]2C(=O)O)cc1 [Compound 13]
inhibition of tumor growth [1]: very good therapeutic effects on inhibiting tumor growth

IC50 [2]: 5.47 nM
SMILES: N#Cc1c(-c2ccccc2)ccnc1/C=C/c1cc(OCC2CCN(C(=O)CN3CCN(CC(=O)O)CCN(CC(=O)O)CC3)CC2)c(CN2CCCC[C@H]2C(=O)O)cc1C(F)(F)F [Compound 59]

IC50 [2]: 0.901 nM
SMILES: Cc1c(/C=C/c2cc(OCCNC(=O)C3CCN(C(=O)CN4CCN(CC(=O)O)CCN(CC(=O)O)CCN(CC(=O)O)CC4)CC3)c(CN3CCCC[C@H]3C(=O)O)cc2C(F)(F)F)cccc1-c1ccccc1 [Compound 18]

IC50 [2]: 0.603 nM
SMILES: Cc1c(/C=C/c2cc(OCCOCCNC(=O)CN3CCN(CC(=O)O)CCN(CC(=O)O)CCN(CC(=O)O)CC3)c(CN3CCCC[C@H]3C(=O)O)cc2C(F)(F)F)cccc1-c1ccccc1 [Compound 31]

IC50 [2]: 9.22 nM
SMILES: Cc1ccc(CCCC(=O)NCCCC[C@H](NC(=O)CN2CCN(CC(=O)O)CCN(CC(=O)O)CCN(CC(=O)O)CC2)C(=O)NCCOCCOc2cc(/C=C/c3cccc(-c4ccccc4)c3C)c(C(F)(F)F)cc2CN2CCCC[C@H]2C(=O)O)cc1 [Compound 30]

IC50 [2]: 12.4 nM
SMILES: Cc1ccc(CCCC(=O)NCCCC[C@H](NC(=O)CN2CCN(CC(=O)O)CCN(CC(=O)O)CCN(CC(=O)O)CC2)C(=O)NCCOCCOc2cc(/C=C/c3cccc(-c4ccccc4)c3C)c(C(F)(F)F)cc2CN2CCCC[C@H]2C(=O)O)cc1 [Compound 32]
inhibition of tumor growth [1]: very good therapeutic effects on inhibiting tumor growth

IC50 [2]: 24.8 nM
SMILES: Cc1c(/C=C/c2cc(OCCOCCN3CCN(CC(=O)O)CCN(CC(=O)O)CCN(CC(=O)O)CC3)c(CN3CCCC[C@@H]3C(=O)O)cc2C(F)(F)F)cccc1-c1ccccc1 [Compound 69]

IC50 [2]: 0.95 nM
SMILES: Cc1c(/C=C/c2cc(OCCNC(=O)C3CCC(CNC(=O)CN4CCN(CC(=O)O)CCN(CC(=O)O)CCN(CC(=O)O)CC4)CC3)c(CN3CCCC[C@H]3C(=O)O)cc2C(F)(F)F)cccc1-c1ccccc1 (stereo partly shown) [Compound 14]
inhibition of tumor growth [1]: very good therapeutic effects on inhibiting tumor growth

IC50 [2]: 1.13 nM
SMILES: Cc1c(/C=C/c2cc(OCCNC(=O)C3CCN(C(=O)CN4CCN(CC(=O)O)CCN(CC(=O)O)CCN(CC(=O)O)CC4)CC3)c(CN3CCCC[C@H]3C(=O)O)cc2C(F)(F)F)cccc1-c1ccccc1 [Compound 38]
inhibition of tumor growth [1]: very good therapeutic effects on inhibiting tumor growth

IC50 [2]: 169 nM
SMILES: Cc1ccc(CCCC(=O)NCCCC[C@H](NC(=O)CN2CCN(CC(=O)O)CCN(CC(=O)O)CCN(CC(=O)O)CC2)C(=O)NCCOc2cc(/C=C/c3cccc(-c4ccccc4)c3C)c(C(F)(F)F)cc2CN2CCCC[C@H]2C(=O)O)cc1 [Compound 10]

IC50 [2]: 5.33 nM
SMILES: Cc1cc(CN2CCCC[C@H]2C(=O)O)c(OCCOC(=O)CN2CCN(CC(=O)[O-])CCN(CC(=O)[O-])CCN(CC(=O)[O-])CC2)cc1/C=C/c1cccc(-c2ccccc2)c1C#N.[Lu+3] [Compound 15]
inhibition of tumor growth [1]: very good therapeutic effects on inhibiting tumor growth

IC50 [2]: 47.7 nM
SMILES: Cc1c(/C=C/c2cc(OCCOCCN3CCN(CC(=O)O)CCN(CC(=O)O)CCN(CC(=O)O)CC3)c(CN3CCCC[C@@H]3C(=O)O)cc2C(F)(F)F)cccc1-c1ccccc1 [Compound 70]
inhibition of tumor growth [1]: very good therapeutic effects on inhibiting tumor growth

IC50 [2]: 1.42 nM
SMILES: Cc1c(/C=C/c2cc(OCCCCCNC(=O)CN3CCN(CC(=O)O)CCN(CC(=O)O)CCN(CC(=O)O)CC3)c(CN3CCCC[C@H]3C(=O)O)cc2C(F)(F)F)cccc1-c1ccccc1 [Compound 16]

IC50 [2]: 13.2 nM
SMILES: Cc1cc(CN2CCCC[C@H]2C(=O)O)c(OCCCCCN2CCN(CC(=O)O)CCN(CC(=O)O)CCN(CC(=O)O)CC2)cc1/C=C/c1cccc(-c2ccccc2)c1C [Compound 71]
